According to patent publication US20220202882A1, “EFFECT OF COMBINATION OF BIFIDOBACTERIUM AND BERBERINE ON PRE-DIABETES AND TYPE 2 DIABETES” (The Fourth Military Medical University, priority 2018, published 2022):
Where a name gives a salt, the structure may show the parent alone.

System: pre-diabetic and type 2 diabetes mellitus patients
Test: Clinical trial: adverse events (safety evaluation)
Assay type: in vivo, human
Procedure: From June 2015 to October 2018, a double-blind, randomized, and parallel-controlled trial, studying the effects of the combined use of Bifidobacterium and berberine on pre-diabetic and type 2 diabetes mellitus patients, was conducted in 10 research centers in Xi'an, Yan'an and Shangluo of Shaanxi province, etc., including the First Affiliated Hospital of the Fourth Military Medical University.
The trial included an enrollment stage of 2 weeks and a treatment stage of 16 weeks. After passing the first visit 1 (see V1 in Table 1), the subjects entered the enrollment stage, i.e., 2 weeks of lifestyle intervention, followed by a re-screening (see V2 in Table 1). The subjects were subjected to a 16-week course of treatment after passing the screening. See Table 1 for the detailed screening parameters.
After the enrollment stage, the baseline data of the 300 successfully enrolled subjects were collected. Meanwhile, the subjects started to receive lifestyle guidance, and were randomly divided into four groups for 16 weeks of treatments.
1) Bifidobacterium group: the subjects were administered with Bifidobacterium capsules (Livzon Pharmaceutical Group Inc., batch no.: 20141013), 0.35 g/capsule, each capsule containing 50,000,000 viable bacteria (Bifidobacterium adolescentis DM8504), 2 capsules/time, 2 times/day, plus berberine placebo tablets (Northeast Pharma Group Shenyang First Pharma Co., Ltd., Lot no.: 20150101, containing 80.2% microcrystalline cellulose, 9.4% pregelatinized starch, 6.4% sodium carboxymethyl starch, 1% magnesium stearate, and 3% copovidone), 0.1 g/tablet, 5 tablets/time, 2 times/day.
2) Berberine group: the subjects were administered with berberine tablets (Northeast Pharma Group Shenyang First Pharma Co., Ltd., Lot no.: 130917, each tablet weighted 0.165 g and contained 0.1 g active berberine ingredient (berberine hydrochloride), with the same excipients as the placebo tablets), 5 tablets/time, 2 times/day, plus Bifidobacterium placebo capsules (Livzon Pharmaceutical Group Inc., Lot no.: 141001, specifically containing 0.348 g spray-dried lactose, and 0.002 g magnesium stearate), 0.35 g/capsule, 2 capsules/time, 2 times/day.
3) Combination Group: the subjects were administered with Bifidobacterium capsules, 0.35 g/capsule, each capsule containing 50,000,000 viable bacteria (B. adolescentis DM8504), 2 capsules/time, 2 times/day, plus berberine tablets, 0.1 g/tablet, each tablet containing 0.1 g active berberine ingredient (berberine hydrochloride), 5 tablets/time, 2 times/day.
4) Control group: the subjects were administered with Bifidobacteria placebo capsules, 0.35 g/capsule, 2 capsules/time, 2 times/day, plus berberine placebo tablets, 0.1 g/tablet, 5 tablets/time, 2 times/day.
Bifidobacterium capsules were taken after meals and berberine tablets were taken before meals.
After the sample testing was finished, 1) Chi-Squared test and t-test were used to evaluate the intergroup balance of the baseline data including the demographic characteristics and pre-treatment indicators, wherein the baseline data referred to those collected at the second visit, before the formal administration, the data collected at the first visit on the enrollment stage were used instead if the data at the second visit was lacking; 2) two-way disordered CM-CH11, Kruska-Wilcox test, etc. were used for analysis and intergroup comparison of pre- and post-treatment indicators such as fasting plasma glucose (FPG), HbA1c, plasma glucose at 2 hours post OGTT (2-h PPG), blood pressure, blood lipids, body weight and BMI; 3) adverse events and hypoglycemia events were described in terms of the type, frequency and relevance with the drugs, for safety evaluation. Software SAS 9.1.3 was used for statistical analysis with all analysis processes being programmed.
All subjects who followed the intent-to-treat principle, grouped randomly, and received the treatment trial and at least one efficacy evaluation were included in the full Analysis Set (FAS). […]

Molecule | Adverse event rate (throughout the trial) | Event rate of adverse events correlated with medications (throughout the trial) | Number of adverse events correlated with medications (abdominal discomfort, abnormal bowel movement) (throughout the trial) | Number of subjects with adverse events (throughout the trial) | Number of subjects with adverse events correlated with medications (throughout the trial) | Adverse event rate (human, in vivo) | Event rate of adverse events correlated with medications (human, in vivo) | Number of adverse events correlated with medications (abdominal discomfort, abnormal bowel movement) (human, in vivo) | Number of adverse events reported (human, in vivo) | Number of subjects with adverse events (human, in vivo) | Number of subjects with adverse events correlated with medications (human, in vivo)
COc1ccc2cc3[n+](cc2c1OC)CCc1cc2c(cc1-3)OCO2 [Berberine, berberine hydrochloride] | 81.63% | 18.37% | 19 | 40 | 9 |  |  |  |  |  | 
Bifidobacterium |  |  |  |  |  | 84% | 21.0% | 30 | 203 | 84 | 21
